According to patent publication US20250189546A1, “METHODS FOR ANALYZING DRUG MOLECULES IN MAMMALIAN TISSUES” (The Scripps Research Institute, priority 2022, published 2025):
“Also recorded” adds a separate entry of the source. Like-named read-outs stand apart in the source and are kept apart here.

Experiments:
[1] = humans, cited from earlier work
[2] = system: monoacylglycerol lipase (MAGL); test: CATCH subcellular compartment imaging in hippocampus with synapsin and MAP2 immunostaining; type: in vivo, mouse
Excerpt: Because MAGL is restricted in localization to presynaptic axonal terminals, whereas FAAH is expressed in neuronal soma, the inventors sought to determine whether CATCH could detect on-and off-target MJN110-yne binding across subcellular compartments. The inventors focused on the well-characterized CA3 to CA1 projection in the hippocampus as it allowed us to observe both axon terminals and soma in the same field of view.
(§1) CATCH labeling: For 100-micron sections labeling, the full CATCH reaction buffer contains: 5 μM AF647-picolyl azide, 150 μM CuSO4, 300 μM BTTP, 2.5 mM sodium ascorbate, and 10% DMSO in PBS. Tissue sections were incubated in click incubation buffer (without sodium ascorbate) overnight at RT. Tissues were then transferred to newly prepared incubation buffer and 100 mM freshly prepared sodium ascorbate was subsequently added to initiate the reaction. After 1 hour at RT in the dark with minor agitation, the reaction was quenched by addition of 4 mM EDTA in PBS (pH=8.0) and samples were washed 3×10 min with PBST. After removing click reaction cocktail, samples were stained by DAPI (1:3000 dilution in PBS from 10 μM stock) for 15 min at RT and would be ready for RI matching and imaging. They could also undergo further staining for cell type registration. For 500-micron sections, 300 μM CuSO4 and 600 μM BTTP were used for incubation and reaction. To achieve full labeling, tissues were incubated at 37° C. for 2 days, and underwent 4 rounds of 1 h click reaction at RT.
Immunostaining: Samples were incubated with primary antibodies in PBST overnight at 4° C. unless otherwise noted. Samples were then washed with PBST, 3×30 min, RT and transferred to secondary antibodies diluted in PBST. Samples were incubated with secondary antibodies overnight, RT and washed with PBST 3×30 min. For antibody elution, imaged slides were dismounted, and tissues were washed by 8% PBS-SDS (pH=7.0) at 60° C. for 8 hours. Samples were then washed by PBST 3×10 min at RT to remove residual SDS and could undergo the next round of staining.
Subcellular compartment intensity analysis: For MJN110-yne characterization, images were acquired at 5 μm from the tissue surface where the highest immunostaining signal can be observed. Different cellular compartments were identified by applying a threshold in immunostaining signal and mean drug labeling intensity was measured in the selected threshold region. Three random squares were drawn in nucleus in different cells and their average intensity was used as background. The recorded intensity value in soma or axonal terminal was then subtracted by the intensity in the nucleus for background adjustment. Data was then normalized to the average intensity of the control group as indicated in each figure legends.

[3] = biological target: T1, FAAH (Mus musculus, UniProt O08914); test: Competitive CATCH: parental PF7845 followed by PF7845-yne probe; type: in vivo
T1 construct: from tissue; host or cells: mouse brain (C57BL6J wild type)
T1 sequence (O08914 1-579): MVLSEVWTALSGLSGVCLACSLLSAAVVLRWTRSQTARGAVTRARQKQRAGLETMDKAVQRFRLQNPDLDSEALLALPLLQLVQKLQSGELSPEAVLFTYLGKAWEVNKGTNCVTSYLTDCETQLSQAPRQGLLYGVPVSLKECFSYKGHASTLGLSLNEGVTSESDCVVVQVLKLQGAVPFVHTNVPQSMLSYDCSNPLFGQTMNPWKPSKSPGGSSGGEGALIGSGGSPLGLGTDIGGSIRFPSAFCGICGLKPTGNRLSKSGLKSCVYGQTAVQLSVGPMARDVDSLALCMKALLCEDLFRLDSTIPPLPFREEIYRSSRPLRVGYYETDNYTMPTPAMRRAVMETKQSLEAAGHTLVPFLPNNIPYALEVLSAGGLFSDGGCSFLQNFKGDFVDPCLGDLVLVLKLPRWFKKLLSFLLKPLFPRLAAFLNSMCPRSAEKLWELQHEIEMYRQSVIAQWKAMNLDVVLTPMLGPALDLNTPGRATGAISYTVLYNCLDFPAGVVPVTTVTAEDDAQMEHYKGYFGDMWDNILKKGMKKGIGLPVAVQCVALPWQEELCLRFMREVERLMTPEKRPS
Excerpt: After establishing CATCH's specificity, scalability, compatibility, and resolution, finally, the inventors tested if CATCH can be used to quantitatively resolve dose-dependent target engagement after in vivo drug administration. […] In this competitive CATCH approach, animals are first treated with a dose range of the parental drugs, followed by a single high dose of the alkyne probes. The dose-dependent target engagement by the parental drug can be recorded based on the competitive blockade of signal in an anatomically specific manner (FIG. 8, A).
The inventors treated mice with 0.01-1 mg/kg of parental PF7845 followed by 1 mg/kg PF7845-yne probe to readout the dose-dependent brain targets of PF7845 by competitive CATCH. […] Conversely, the inventors adopted a direct approach to visualize dose-dependent alkyne drug PK properties (FIG. 8, C).
Sample collection: Inhibitors were administered to mice in a vehicle of 10% DMSO, 2% Tween-80 in saline for intraperitoneal (i.p.) injections. After drug injection at designated dose and time, mice were heavily anesthetized with isoflurane and then transcardially perfused with ice cold PBS followed by ice cold 4% PFA in PBS with sucrose. Mouse brains or other peripheral tissues were then dissected out and post fixed in 4% PFA overnight at 4° C. Tissues were washed with PBS, embedded in 2% agarose and sectioned as 100-micron or 500-micron tissue sections by vibratome (Leica VT1000S). Tissue sections were stored in PBS with 0.02% sodium azide at 4° C. for further processing.
as §1

[4] = biological target: T2, MAGL (Mus musculus, UniProt O35678); test: Gel-based CC-ABPP of whole brain lysates; type: in vivo; conditions: 1 mg/kg
T2 construct: from tissue; host or cells: mouse brain hemisphere, 100,000 g membrane pellet
T2 sequence (O35678 1-303): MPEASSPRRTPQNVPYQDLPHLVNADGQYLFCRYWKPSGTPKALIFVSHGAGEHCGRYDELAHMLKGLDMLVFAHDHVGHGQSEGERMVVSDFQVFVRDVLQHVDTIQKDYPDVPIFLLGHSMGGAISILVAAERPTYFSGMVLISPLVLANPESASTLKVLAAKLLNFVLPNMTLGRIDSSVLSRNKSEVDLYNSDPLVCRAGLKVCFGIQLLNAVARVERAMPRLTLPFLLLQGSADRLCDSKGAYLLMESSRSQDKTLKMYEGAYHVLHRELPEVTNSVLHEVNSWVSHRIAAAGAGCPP
Protocol: (§2) For in gel ABPP analysis, after anesthetizing, mice were decapitated and target tissues were harvested and flash frozen in liquid N2 without perfusion or fixation. Each mouse hemisphere and liver were washed with ice cold PBS on ice (2×1 mL) to remove excessive blood. Tissues were homogenized in 1 mL PBS and sonicated for 10 min in ice cold water. Tissues were centrifuged (1000 g, 10 min, 4° C.) and supernatant was then centrifuged at high speed (100,000 g, 45 min, 4° C.). Supernatant was discarded and remaining pellets were gently washed with ice cold PBS (2×0.5 mL). Pellets were resuspended by gentle pipetting and protein concentrations were quantified by the Bio-Rad DC Protein Assay Kit. Proteomes were then diluted to […] for immediate use or aliquoted and stored at −80° C.
(§3) In gel click chemistry ABPP assay: Click chemistry labeling of alkyne inhibitors was performed as previously reported (Niphakis et al., ACS Chem Neurosci 3, 418-426, 2012). Click reaction buffer was prepared by mixing CuSO4 (50 mM in H2O, 1.0 μL/reaction), TBTA (1.7 mM in 1:4 DMSO/t-BuOH, 3.0 μL/reaction), freshly prepared TCEP (50 mM in H2O, 1.0 μL/reaction) and 5-TAMRA azide (1.25 mM in DMSO, 1.0 μL/reaction). For every 50 μL tissue proteome ([…]), 6 μL click buffer was added. Reaction mixture was gently mixed and kept in a dark drawer for 1 hour at RT. […]

[5] = biological target: T1, FAAH; test: Gel-based CC-ABPP of whole brain lysates; type: in vivo; conditions: 20 mg/kg
Protocol: as §2, §3

CN(C(=O)n1cnc(-c2ccc[n+]([O-])c2)c1)C1CCCCC1 [BIA-10-2474]
Clinical safety / toxicity [1]: Unanticipated toxicity
Clinical safety / toxicity ([1]; listed as BIA 10-2474): associated with clinical neurological toxicities

O=C(Nc1cccnn1)N1CCC(=Cc2cccc(Oc3ccc(C(F)(F)F)cn3)c2)CC1 [PF7845]
Effect of pre-treatment on MJN110-yne binding in soma and axon terminals ([2]; PF7845 pre-treatment, then MJN110-yne, hippocampus): significantly suppressed MJN110-yne binding in the soma, but not axon terminals
FAAH target binding by competitive CATCH ([3]; 0.01 mg/kg PF7845, then 1 mg/kg PF7845-yne): no target binding was detected
FAAH inhibition by competitive CATCH, cortex vs hippocampus ([3]; 0.02 mg/kg PF7845, then PF7845-yne 1 mg/kg, 1 h, i.p.): Cortical PF7845-yne is fully blocked; also recorded: fully inhibited in the cortex but not in the hippocampus
FAAH inhibition by competitive CATCH ([3]; 0.05 mg/kg PF7845, then 1 mg/kg PF7845-yne): full FAAH inhibition was achieved
Duration of FAAH blockage to competitive probe binding ([3]; 24 hours after PF7845 administration): sustained FAAH blockage to competitive probe binding
Effect of pre-treatment on PF7845-yne-generated CATCH signals across the brain ([3]; pharmacological blocking experiment): completely abolished
Clinical safety / toxicity [1]: considered a safe FAAH inhibitor

C#Cc1ccc(C(c2ccc(Cl)cc2)N2CCN(C(=O)ON3C(=O)CCC3=O)CC2)cc1 (stereo not drawn) [MJN110-yne]
Target engagement in gel-based CC-ABPP [4]: selectively engaged MAGL
Off-target engagement in gel-based CC-ABPP [5]: substantial off-target engagement of FAAH
Subcellular localisation of CATCH signal, low dose ([2]; 1 mg/kg, hippocampus CA1): binding in presynaptic terminals; also recorded: restricted to synapsin positive axon terminals
Overall fluorescence intensity in hippocampus ([2]; 20 mg/kg vs 1 mg/kg): overall higher fluorescence intensity
Subcellular localisation of CATCH signal, high dose ([2]; 20 mg/kg, hippocampus): spread to the neuronal soma
Specificity of CATCH signals ([2]; pretreatment with parent MJN110 and MAGL−/− mice): confirmed the specificity
